This assay addresses T1, mGlyT-1b (Mus musculus, UniProt P28571).
T1 construct: host or cells: Flp-in CHO cells, stably transfected
T1 sequence (P28571 1-651 isoform P28571-2): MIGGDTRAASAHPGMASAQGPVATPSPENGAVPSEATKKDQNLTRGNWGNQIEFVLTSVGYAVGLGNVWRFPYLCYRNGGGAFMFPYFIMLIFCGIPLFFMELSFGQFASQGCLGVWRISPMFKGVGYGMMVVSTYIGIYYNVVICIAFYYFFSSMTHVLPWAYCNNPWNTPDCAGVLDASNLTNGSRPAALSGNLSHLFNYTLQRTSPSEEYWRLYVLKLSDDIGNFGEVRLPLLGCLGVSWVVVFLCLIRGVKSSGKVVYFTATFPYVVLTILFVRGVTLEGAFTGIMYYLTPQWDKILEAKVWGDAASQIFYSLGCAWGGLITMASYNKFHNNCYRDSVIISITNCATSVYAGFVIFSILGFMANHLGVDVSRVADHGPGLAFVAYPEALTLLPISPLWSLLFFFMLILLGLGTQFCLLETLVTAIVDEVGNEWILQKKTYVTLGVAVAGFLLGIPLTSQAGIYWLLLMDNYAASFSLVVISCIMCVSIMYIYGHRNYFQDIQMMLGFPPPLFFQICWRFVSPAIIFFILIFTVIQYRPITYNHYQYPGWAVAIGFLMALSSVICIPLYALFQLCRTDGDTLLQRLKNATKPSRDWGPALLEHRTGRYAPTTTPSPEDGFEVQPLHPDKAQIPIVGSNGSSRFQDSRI
Nature of the assay: Glycine uptake inhibition assay (mGlyT-1b). The assay is classed as cell-based. The conditions noted are these: inhibition of [3H]-glycine uptake in Flp-in-CHO cells stably transfected with mGlyT1b cDNA; 20 min at 22° C. The protocol: DMEM complete medium: Nutrient mixture F-12 (Gibco Life-technologies), fetal bovine serum (FBS) 5%, (Gibco life technologies), Penicillin/Streptomycin 1% (Gibco life technologies), Hygromycin 0.6 mg/ml (Gibco life technologies), Glutamine 1 mM Gibco life technologies)
Uptake buffer (UB): 150 mM NaCl, 10 mM Hepes-Tris, pH 7.4, 1 mM CaCl2, 2.5 mM KCl, 2.5 mM MgSO4, 10 mM (+) D-glucose. Flp-in™—CHO (Invitrogen Cat n° R758-07)cells stably transfected with mGlyT1b cDNA.
Glycine uptake inhibition assay (mGlyT-1b)
On Day 1 mammallian cells, (Flp-in™—CHO), transfected with mGlyT-1b cDNA, were plated at the density of 40,000 cells/well in complete F-12 medium, without hygromycin in 96-well culture plates. On day 2, the medium was aspirated and the cells were washed twice with uptake buffer (UB). The cells were then incubated for 20 min at 22° C. with either (i) no potential competitor, (ii) 10 mM non-radioactive glycine, (iii) a concentration of a potential inhibitor. A range of concentrations of the potential inhibitor was used to generate data for calculating the concentration of inhibitor resulting in 50% of the effect (e.g. IC50, the concentration of the competitor inhibiting glycine uptake of 50%). A solution was then immediately added containing [^3H]-glycine 60 nM (11-16 Ci/mmol) and 25 μM non-radioactive glycine. The plates were incubated with gentle shaking and the reaction was stopped by aspiration of the mixture and washing (three times) with ice-cold UB. The cells were lysed with scintillation liquid, shaken 3 hours and the radioactivity in the cells was counted using a scintillation counter.
In general, IC50 refers to the concentration that gives 50% inhibition. For the compound `CC(=O)c1ccc(N2CCN(C(=O)c3cc([N+](=O)[O-])ccc3NCC3CC3)CC2)c(F)c1` [Example 4, 1-(4-{4-[2-(Cyclopropylmethyl-amino)-5-nitro-benzoyl]-piperazin-1-yl}-3-fluoro-phenyl)-ethanone], inhibition was half-maximal at 13 nM (IC50).
The compound `CC(=O)c1ccc(N2CCN(C(=O)c3cc([N+](=O)[O-])ccc3N3CCC(CO)C3)CC2)c(F)c1` (racemic) [Example 175, 1-(3-Fluoro-4-{4-[2-(3-hydroxymethyl-pyrrolidin-1-yl)-5-nitro-benzoyl]-piperazin-1-yl}-phenyl)-ethanone] showed a half-maximal inhibitory concentration (IC50) of 9.7 nM.
With `CC(=O)c1ccc(N2CCN(C(=O)c3cc([N+](=O)[O-])ccc3N3CCCC(C)C3)CC2)c(F)c1` (stereo not drawn) [Example 37, 1-(3-Fluoro-4-{4-[2-(3-methyl-piperidin-1-yl)-5-nitro-benzoyl]-piperazin-1-yl}-phenyl)-ethanone], the IC50 turned out to be 7 nM.
As for `CCN(CC)c1ccc([N+](=O)[O-])cc1C(=O)N1CCN(c2ccc(C(C)=O)cc2F)CC1` [Example 11, 1-{4-[4-(2-Diethylamino-5-nitro-benzoyl)-piperazin-1-yl]-3-fluoro-phenyl}-ethanone], the IC50 amounted to 15 nM.
Regarding `CC(=O)c1ccc(N2CCN(C(=O)c3cc([N+](=O)[O-])ccc3N3CCC(C)CC3)CC2)c(F)c1` [Example 36, 1-(3-Fluoro-4-{4-[2-(4-methyl-piperidin-1-yl)-5-nitro-benzoyl]-piperazin-1-yl}-phenyl)-ethanone], the IC50 worked out at 14 nM.
The compound `CC(=O)c1ccc(N2CCN(C(=O)c3cc([N+](=O)[O-])ccc3NC(C)(C)C)CC2)c(F)c1` [Example 176, 1-{3-Fluoro-4-[4-(2-tert.-butylamino-5-nitro-benzoyl)-piperazin-1-yl]-phenyl}-ethanone] displayed an IC50 of 20 nM.
The compound `CC(=O)c1ccc(N2CCN(C(=O)c3cc([N+](=O)[O-])ccc3N3CC=CC3)CC2)c(F)c1` [Example 41, 1-(4-{4-[2-(2,5-Dihydro-pyrrol-1-yl)-5-nitro-benzoyl]-piperazin-1-yl}-3-fluoro-phenyl)-ethanone] returned a concentration for half-maximal inhibition (IC50) of 14 nM.
Regarding `N#Cc1cc(C(F)(F)F)ccc1N1CCN(C(=O)c2cc([N+](=O)[O-])ccc2N2CCOCC2)CC1` [Example 186, 2-[4-(2-Morpholin-4-yl-5-nitro-benzoyl)-piperazin-1-yl]-5-trifluoromethyl-benzonitrile], half-maximal inhibition (IC50) was put at 15 nM.
Take `CNS(=O)(=O)c1ccc(N2CCOCC2)c(C(=O)N2CCN(c3ccc(C(F)(F)F)c(F)c3)CC2)c1` [Example 264, 3-[4-(3-Fluoro-4-trifluoro-methyl-phenyl)-piperazine-1-carbonyl]-N-methyl-4-morpholin-4-yl-benzenesulfonamide]: 12 nM corresponded to half-maximal inhibition (IC50).
In the case of `CNS(=O)(=O)c1ccc(N2CCOCC2)c(C(=O)N2CCN(c3ccc(C(F)(F)F)cc3F)CC2)c1` [Example 263, 3-[4-(2-Fluoro-4-trifluoro-methyl-phenyl)-piperazine-1-carbonyl]-N-methyl-4-morpholin-4-yl-benzene-sulfonamide] it was 10 nM; in that of `CNS(=O)(=O)c1ccc(N2CCCC2)c(C(=O)N2CCN(c3ccc(C#N)cc3F)CC2)c1` [Example 234, 3-[4-(4-Cyano-2-fluoro-phenyl)-piperazine-1-carbonyl]-N-methyl-4-pyrrolidin-1-yl-benzenesulfonamide], 10 nM.
The compound `CNS(=O)(=O)c1ccc(N2CCCC2)c(C(=O)N2CCN(c3ccc(C(C)=O)cc3F)CC2)c1` [Example 133, 3-[4-(4-Acetyl-2-fluoro-phenyl)-piperazine-1-carbonyl]-N-methyl-4-pyrrolidin-1-yl-benzenesulfonamide] came in with an IC50 of 9 nM.
For the compound `CC(=O)c1ccc(N2CCN(C(=O)c3cc([N+](=O)[O-])ccc3NC3CCC3)CC2)c(F)c1` [Example 20, 1-{4-[4-(2-Cyclobutylamino-5-nitro-benzoyl)-piperazin-1-yl]-3-fluoro-phenyl}-ethanone], the 50% inhibitory concentration (IC50) amounted to 2.1 nM.
The value for `CNS(=O)(=O)c1ccc(N2CCCCC2)c(C(=O)N2CCN(c3ccc(C(F)(F)F)c(F)c3)CC2)c1` [Example 251, 3-[4-(3-Fluoro-4-trifluoro-methyl-phenyl)-piperazine-1-carbonyl]-N-methyl-4-piperidin-1-yl-benzenesulfonamide] was 19 nM.
In the case of `CC(=O)c1ccc(N2CCN(C(=O)c3cc([N+](=O)[O-])ccc3N3CCCCCC3)CC2)c(F)c1` [Example 28, 1-{4-[4-(2-Azepan-1-yl-5-nitro-benzoyl)-piperazin-1-yl]-3-fluoro-phenyl}-ethanone] it was 3.3 nM; in that of `CNS(=O)(=O)c1ccc(N2CCOCC2)c(C(=O)N2CCN(c3ccc(C(F)(F)F)cc3)CC2)c1` [Example 131, N-Methyl-4-morpholin-4-yl-3-[4-(4-trifluoromethyl-phenyl)-piperazine-1-carbonyl]-benzenesulfonamide], 8 nM.
As for `CNS(=O)(=O)c1ccc(N2CCCC2)c(C(=O)N2CCN(c3ccc(C#N)cc3)CC2)c1` [Example 233, 3-[4-(4-Cyano-phenyl)-piperazine-1-carbonyl]-N-methyl-4-pyrrolidin-1-yl-benzenesulfonamide], the IC50 was 16 nM.
On to `CS(=O)(=O)c1ccc(N2CCCCC2)c(C(=O)N2CCN(c3ccc(C(F)(F)F)c(F)c3)CC2)c1` [Example 220, [4-(3-Fluoro-4-trifluoromethyl-phenyl)piperazin-1-yl]-(5-methanesulfonyl-2-piperidin-1-yl-phenyl)-methanone], for which the midpoint of inhibition, the IC50, lay at 19 nM.

Values taken from US7427612B2, “Benzoyl-piperazine derivatives” (Hoffmann-La Roche Inc., priority 2003, dated 2008).
